Structures can show the parent of a compound that is named as a salt.

The target of this assay is T1, human IKK-β (Homo sapiens, UniProt O14920).
T1 construct: A cDNA fragment encoding human IKK-β open reading frame was generated by PCR; His tag (from pcDNA3.1/His C); made in house; host or cells: Sf21 insect cells (baculovirus); substrate made in E. coli
T1 sequence (O14920 1-756): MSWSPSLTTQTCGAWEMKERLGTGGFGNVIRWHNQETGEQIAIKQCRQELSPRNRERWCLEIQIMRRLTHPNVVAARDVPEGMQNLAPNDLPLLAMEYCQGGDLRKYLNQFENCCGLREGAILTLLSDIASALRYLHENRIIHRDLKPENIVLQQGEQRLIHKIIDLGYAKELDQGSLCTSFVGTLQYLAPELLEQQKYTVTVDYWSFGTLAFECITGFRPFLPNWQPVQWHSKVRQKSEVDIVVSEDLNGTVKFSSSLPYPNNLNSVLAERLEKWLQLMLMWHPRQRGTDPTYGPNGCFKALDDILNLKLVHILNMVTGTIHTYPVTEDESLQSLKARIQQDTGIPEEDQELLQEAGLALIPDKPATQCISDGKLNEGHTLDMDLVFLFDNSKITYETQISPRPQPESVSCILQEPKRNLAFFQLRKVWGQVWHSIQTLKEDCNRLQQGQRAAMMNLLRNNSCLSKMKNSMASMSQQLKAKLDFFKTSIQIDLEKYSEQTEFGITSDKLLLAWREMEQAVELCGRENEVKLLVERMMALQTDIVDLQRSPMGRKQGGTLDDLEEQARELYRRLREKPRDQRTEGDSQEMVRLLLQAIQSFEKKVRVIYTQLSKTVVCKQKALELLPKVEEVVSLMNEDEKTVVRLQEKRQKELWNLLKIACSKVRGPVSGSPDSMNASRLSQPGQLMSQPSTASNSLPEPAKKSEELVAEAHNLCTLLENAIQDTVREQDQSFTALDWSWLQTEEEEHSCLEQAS
The assay is described as follows: IKK-β kinase inhibitory assay. Particulars: compounds as yielded by solid phase synthesis, purity about 40 to 90%, read-out: In vitro activity grade (In vitro IC50). The format is biochemical. The text has this:
[IKK-β Kinase Inhibitory Assay]
(1) Preparation of IKK-β Kinase Protein.
• A cDNA fragment encoding human IKK-β open reading frame was generated by PCR with the use of a pair of primers designed from the published sequence (Woronicz J D et al. (1997) Science 278, 866-869). A template was obtained from Quickclone cDNA (Clontech) using Elongase™ Amplification kit (Life Technologies). The DNA fragments generated by PCR were gel-purified and subcloned into pBluescript. The cDNA fragment cloned in pBluescript was inserted into pcDNA3.1/His C KpnI/NotI, and transferred into pVL1393 SmaI/XbaI (Pharmingen) to construct a baculovirus transfer vector. Then the vector, together with the linearized baculovirus (BaculoGold™, Pharmingen) was used to transfect Sf21 cells (Invitrogen, San Diego, Calif.). Generated recombinant baculovirus was cloned and amplified in Sf21 cells, grown in TNM-FH insect cell medium (Life Technologies, Inc.) supplemented with 10% FCS, […] Gentamycin, 0.1% Pluronic F-68 (Life Technologies, Inc.) as suspension culture (200 ml in 1 L Erlenmeyer flask; 27° C.; 130 rpm). Sf21 cells were infected with this amplified virus with a multiplicity of infection of 5 following standard protocols (Crossen R, Gruenwald S (1997) Baculovirus Expression Vector System Instruction Manual, Pharmingen Corporation) and harvested 48 hrs later. The cells were lysed to obtain the produced chimeric protein of IKK-β kinase fused by histidine (His-tagged IKK-beta). (2) The Preparation of Purified GST-IκBα Fusion Proteins • An expression vector containing the nucleotide sequence encoding fusion protein of GST with amino acid residues 1 to 54 of IκBα under the control of an IPTG-inducible promoter was constructed. The expression vector was introduced in E. coli and the transformant was cultured and lysed to obtain a GST-IκBα fusion protein. Then the resulting GST-IκBα fusion protein was purified and biotinated for kinase assay. (3) The Measurement of IKK-β Kinase Activity • The 96-well format kinase assay of IKK-β were performed to test the inhibitory activity of the compounds of the present invention. First, 5 μl of a test compound was put in the presence of 2.5% dimethyl sulfoxide (DMSO) in each well in a U-bottomed 96-well plate (Falcon). For control wells of background (BG) and total phosphorylation (TP), 5 μl of 2.5% DMSO was put. Recombinant IKK-β (final 0.6 μg/ml) and bio-GST-IκBα (1-54) (final 0.2 μM) were diluted in 25 μl of 2×kinase buffer β (40 mM Tris-HCl, pH 7.6, 40 mM MgCl2, 40 mM β-glycerophosphate, 40 mM p-nitrophenylphosphate, 2 mM EDTA, 40 mM creatine phosphate, 2 mM DTT, 2 mM Na3VO4, 0.2 mg/ml BSA and 0.8 mM phenylmethylsulfonyl fluoride) and transferred to the 96-well plate. Bio-GST-IκBα (1-54) in 25 μl of 2×kinase buffer β without IKK-β was transferred to BG wells. Then 20 μl of 12.5 μM ATP, 62.5 μCi/ml [γ-^33P] ATP (Amersham Pharmacia Biotech) was added and the resulting mixture was incubated for 2 hrs at room temperature. The kinase reactions were terminated by the addition of 150 μl of termination buffer (100 mM EDTA, 1 mg/ml BSA, 0.2 mg NaN3). One hundred and fifty μl of the sample were transferred to a streptavidin-coated, white MTP (Steffens Biotechniche Analysen GmbH #08114E14.FWD) to capture the biotinylated substrates. After 1 hr of incubation, non-bound radioactivity was eliminated by washing the wells five times with 300 μl of washing buffer including 0.9% NaCl and 0.1% (w/v) Tween-20 with the use of a MW-96 plate washer (BioTec). The bound radioactivity was determined after the addition of 170 μl MicroScint-PS scintillation cocktail (Packard) using a TopCount scintillation counter. [Syk Tyrosine Kinase Inhibitory Assay for Selectivity] (1) Preparation of Syk Protein • A cDNA fragment encoding human Syk openreading frame was cloned from total RNA of human Burkitt's lymphoma B cell lines, Raji (American Type Culture Collection), with the use of RT-PCR method.
By IC50 is commonly meant the midpoint of a concentration-inhibition curve. With `CC(=O)Nc1nc(-c2c(O)cccc2OCC2CC2)cc(C2CCNCC2)c1C#N` [Example 6-2, N-[3-cyano-6-[2-(cyclopropylmethoxy)-6-hydroxyphenyl]-4-(4-piperidinyl)-2-pyridinyl]acetamide hydrochloride], the IC50 was less than 500 nM.
The figure for `NC(=O)c1c(C2CCCNC2)cc(-c2ccccc2O)nc1N` (centres unmarked) [Example 7-1, 2-amino-6-(2-hydroxyphenyl)-4-(3-piperidinyl)nicotinamide hydrochloride] is less than 500 nM.
The value for `O=c1[nH]c(=O)c2c(C3CCCNC3)cc(-c3ccccc3O)nc2[nH]1` (centres unmarked) [Example 7-2, 7-(2-hydroxyphenyl)-5-(3-piperidinyl)pyrido[2,3-d]pyrimidine-2,4(1H,3H)-dione hydrochloride] was less than 500 nM; that for `O=c1[nH]c2nc(-c3ccccc3O)cc(C3CCCNC3)c2c(=O)n1-c1ccccc1` (centres unmarked) [Example 7-3, 7-(2-hydroxyphenyl)-3-phenyl-5-(3-piperidinyl)pyrido[2,3-d]pyrimidine-2,4(1H,3H)-dione hydrochloride] was 500 to 2000 nM; that for `Nc1nc(-c2ccccc2O)cc2c1C(=O)N1CCCC2C1` (centres unmarked) [Example 8-1, 6-amino-4-(2-hydroxy-phenyl)-5,9-diaza-tricyclo[7.3.1.0^2,7]trideca-2(7),3,5-trien-8-one] was 500 to 2000 nM.
The value for `CNC(=O)c1c(C2CCCNC2)cc(-c2ccccc2O)nc1N` (centres unmarked) [Example 8-2, 2-amino-6-(2-hydroxyphenyl)-N-methyl-4-(3-piperidinyl)nicotinamide hydrochloride] was 500 to 2000 nM.
On to `CNC(=O)c1c(C2CCCNC2)cc(-c2c(O)cccc2OCC2CC2)nc1N` (centres unmarked) [Example 8-3, 2-amino-6-[2-(cyclopropylmethoxy)-6-hydroxyphenyl]-N-methyl-4-(3-piperidinyl)nicotinamide hydrochloride], for which the concentration for half-maximal inhibition (IC50) is less than 500 nM.
Consider `CC(C)(C)OC(=O)c1c(C2CCCNC2)cc(-c2ccccc2O)nc1N` (centres unmarked) [Example 9-1, tert-butyl 2-amino-6-(2-hydroxyphenyl)-4-(3-piperidinyl)nicotinate hydrochloride], for which the IC50 is less than 500 nM.
On to `Nc1nc(-c2ccccc2O)cc(C2CCCNC2)c1C(=O)O` (centres unmarked) [Example 9-2, 2-amino-6-(2-hydroxyphenyl)-4-(3-piperidinyl)nicotinic acid hydrochloride], for which the IC50 was less than 500 nM.
As for `Nc1nc(-c2c(O)cccc2OCC2CC2)cc(C2CCCNC2)c1C(=O)O` (centres unmarked) [Example 9-3, 2-amino-6-[2-(cyclopropylmethoxy)-6-hydroxyphenyl]-4-(3-piperidinyl)nicotinic acid hydrochloride], the IC50 was less than 500 nM.
For the compound `Cn1c(=O)[nH]c2nc(-c3ccccc3O)cc(C3CCCNC3)c2c1=O` (centres unmarked) [Example 10-1, 7-(2-hydroxy-phenyl)-3-methyl-5-piperidin-3-yl-1H-pyrido[2,3-d]pyrimidine-2,4-dione hydrochloride], the concentration for half-maximal inhibition (IC50) is less than 500 nM.
On to `Nc1nc(-c2ccccc2O)cc(C2CCCNC2)c1CO` (centres unmarked) [Example 11-1, 2-[6-amino-5-(hydroxymethyl)-4-(3-piperidinyl)-2-pyridinyl]phenol hydrochloride], for which the IC50 was less than 500 nM.
The figure for `Nc1nc(-c2c(O)cccc2F)cc(C2CCCNC2)c1CO` (centres unmarked) [Example 11-2, 2-[6-amino-5-(hydroxymethyl)-4-(3-piperidinyl)-2-pyridinyl]-3-fluorophenol hydrochloride] is less than 500 nM.
The figure for `Nc1nc(-c2ncccc2O)cc(C2CCCNC2)c1CO` (centres unmarked) [Example 11-3, 6′-amino-5′-(hydroxymethyl)-4′-3-piperidinyl)-2,2′-bipyridin-3-ol hydrochloride] is less than 500 nM.
The figure for `Nc1nc(-c2ccccc2O)cc(C2=CCCNC2)c1CO` [Example 11-4, 2-[6′-amino-5′-(hydroxymethyl)-1,2,5,6-tetrahydro-3,4′-bipyridin-2′-yl]phenol hydrochloride] is less than 500 nM; for `Nc1nc(-c2c(O)cccc2OCC2CC2)cc(C2CCCNC2)c1CO` (centres unmarked) [Example 12-1, 2-[6-amino-5-(hydroxymethyl)-4-(3-piperidinyl)-2-pyridinyl]-3-(cyclopropylmethoxy)phenol hydrochloride] it is less than 500 nM; for `COCc1c(C2CCCNC2)cc(-c2ccccc2O)nc1N` (centres unmarked) [Example 13-1, 2-[6-amino-5-(methoxymethyl)-4-(3-piperidinyl)-2-pyridinyl]phenol hydrochloride] it is less than 500 nM.
For the compound `Cc1c(C2CCCNC2)cc(-c2ccccc2O)nc1N` (centres unmarked) [Example 14-1, 2-[6-amino-5-methyl-4-(3-piperidinyl)-2-pyridinyl]phenol hydrochloride], the half-maximal inhibitory concentration (IC50) is less than 500 nM.
The figure for `CC(O)c1c(C2CCCNC2)cc(-c2ccccc2O)nc1N` (centres unmarked) [Example 15-1, 2-[6-amino-5-(1-hydroxyethyl)-4-(3-piperidinyl)-2-pyridinyl]phenol hydrochloride] is less than 500 nM; for `Nc1nc(-c2ccccc2O)cc(C2CCCNC2)c1C(O)c1ccccc1` (centres unmarked) [Example 15-2, 2-[6-amino-5-[hydroxy(phenyl)methyl]-4-(3-piperidinyl)-2-pyridinyl]phenol hydrochloride] it is less than 500 nM; for `CC(=O)c1c(C2CCCNC2)cc(-c2ccccc2O)nc1N` (centres unmarked) [Example 15-3, 1-[2-amino-6-(2-hydroxyphenyl)4-(3-piperidinyl)-3-pyridinyl]ethanone hydrochloride] it is less than 500 nM.
The figure for `Oc1ccccc1-c1cc(C2CCCNC2)c2cn[nH]c2n1` (centres unmarked) [Example 16-1, 2-(4-Piperidin-3-yl-1H-pyrazolo[3,4-b]pyridin-6-yl)-phenol hydrochloride] is 500 to 2000 nM; for `Oc1cccc(OCC2CC2)c1-c1cc(C2CCCNC2)c2c(n1)NCOC2` (centres unmarked) [Example 17-1, 3-(cyclopropylmethoxy)-2-[5-(3-piperidinyl)-1,4-dihydro-2H-pyrido[2,3-d][1,3]oxazin-7-yl]-phenol hydrochloride] it is less than 500 nM.

The values are drawn from patent publication US6984649B1, “Pyridine derivatives” (Bayer Aktiengesellschaft, priority 2000, dated 2006).
